From patent EP4603105A1, “PHARMACEUTICAL COMPOSITION CONTAINING CYCLIC COMPOUND HAVING SELECTIVE KRAS INHIBITORY EFFECT AGAINST HRAS AND NRAS” (CHUGAI SEIYAKU KABUSHIKI KAISHA, priority 2022, dated 2024)
pIC50: −log10 of the molar value. *1 amine or outer side, *2 acyl side, *3 side chain or, on linkers, in order; H or OH if unused. Where a SMILES comes first, the peptide text is derived from it. Bridges are numbered along the chain shown (N, C = ends). [ ]: non-standard residue; d: D form. The star is where a group is joined. hPhe(3-Cl-4-CF3) = N[C@@H](CCc1ccc(C(F)(F)F)c(Cl)c1)C(=O)O; X19 = O=C([C@H](Cc1ccc(C(F)(F)F)cc1)N(CCCF)[*:1])[*:2]; NPrPhe(4-CF3) = CCCN[C@@H](Cc1ccc(C(F)(F)F)cc1)C(=O)O; NMeGly(cPent) = CN[C@H](C(=O)O)C1CCCC1; Hyp = O=C(O)[C@@H]1C[C@@H](O)CN1; NMeD = CN[C@@H](CC(=O)O)C(=O)O; NMeL = CN[C@@H](CC(C)C)C(=O)O; Morpholide = C1CN(*)CCO1; NMeA = CN[C@@H](C)C(=O)O; Ac5c = NC1(C(=O)O)CCCC1; Aze = O=C(O)[C@@H]1CCN1; Ac4c = NC1(C(=O)O)CCC1; Sar = CNCC(=O)O

How the values were obtained:
[1] = test system: human lung cancer strain NCI-H441; format: cell-based
In short: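 Signal came from […] measured per well once the reagent was added. Beforehand, cells were cultured at 37°C and 5% carbon dioxide on a compound series serially diluted in dimethyl sulfoxide.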

[2] = molecular target: GDP-bound NRAS wild-type protein (Homo sapiens, UniProt P01111); assay: Binding to NRAS by surface plasmon resonance (SPR), KD and KD ratio to KRAS
In short: (§1)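 Each cycle, GDP-bound biotin-Avi RAS was captured (~100–300 RU), compound concentrations were injected low to high for 75 s each at 100 µL/min, then the chip was regenerated. Buffer: HBS pH 7.4, 10 mM MgCl2, 10 µM GDP, 1 mM DTT, 4% DMSO; 30°C. KD from a 1:1 binding model.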

HRAS wild-type protein = HRAS wild-type protein (Homo sapiens, UniProt P01112); assay: Binding to HRAS by surface plasmon resonance (SPR), KD and KD ratio to KRAS
In short: as §1

[3] = ratio of the KD value with respect to GDP-bound NRAS wild-type protein to the KD value with respect to KRAS
[4] = ratio of the KD value with respect to HRAS wild-type protein to the KD value with respect to KRAS
[5] = ratio of KD for GDP-bound NRAS wild-type protein to KD for KRAS
[6] = ratio of KD for HRAS wild-type protein to KD for KRAS
[7] = ratio of KD with respect to GDP-bound NRAS wild-type protein to KD with respect to KRAS
[8] = ratio of KD with respect to HRAS wild-type protein to KD with respect to KRAS
[9] = ratio of KD value for GDP-bound NRAS wild-type protein to KD value for KRAS (SPR)
[10] = ratio of KD value for HRAS wild-type protein to KD value for KRAS (SPR)

Chain of GDP-bound NRAS wild-type protein (P01111 whole entry): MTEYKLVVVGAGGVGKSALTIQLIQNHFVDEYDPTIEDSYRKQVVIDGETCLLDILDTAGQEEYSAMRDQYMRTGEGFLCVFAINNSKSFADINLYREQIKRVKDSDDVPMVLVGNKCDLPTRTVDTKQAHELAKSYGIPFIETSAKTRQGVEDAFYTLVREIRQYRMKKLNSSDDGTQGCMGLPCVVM
Chain of HRAS wild-type protein (P01112 whole entry): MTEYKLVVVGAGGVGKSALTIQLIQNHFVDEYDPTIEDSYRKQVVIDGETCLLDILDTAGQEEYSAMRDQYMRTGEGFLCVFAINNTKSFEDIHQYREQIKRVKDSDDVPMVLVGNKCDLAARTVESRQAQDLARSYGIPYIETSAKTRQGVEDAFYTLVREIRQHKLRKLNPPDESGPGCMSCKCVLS

| Structure (SMILES) | pIC50 [1] | NRAS /KRAS [2, 3] | HRAS /KRAS (HRAS wild-type protein; [4]) | further results |
| --- | --- | --- | --- | --- |
| CC[C@H](C)[C@@H]1NC(=O)[C@H](CC(C)C)N(C)C(=O)C[C@@H](C(=O)N2CCOCC2)N(C)C(=O)[C@H](C2CCCC2)N(C)C(=O)C2(CCC2)NC(=O)[C@@H]2C[C@@H](O)CN2C(=O)[C@H](CCc2cc(F)c(C(F)(F)F)c(F)c2)NC(=O)CN(C)C(=O)[C@H](Cc2ccc(C(F)(F)F)cc2)N2CCCC[C@@H](C2=O)N(C)C(=O)CN(C)C1=O [PP0868] | 7.15 |  |  | NRAS /KRAS [2, 5]: C (A compound having a KD ratio of 0.1 or more and less than 3 is denoted as C); HRAS /KRAS (HRAS wild-type protein; [6]): B (a compound having 3 or more and less than 10 is denoted as B) |
| CCO[C@@H]1C[C@H]2C(=O)NC3(CCC3)C(=O)N(C)[C@@H](C3CCCC3)C(=O)N(C)[C@H](C(=O)N(C)C)CC(=O)N(C)[C@@H](CC)C(=O)N[C@@H]([C@@H](C)CC)C(=O)N3CC[C@H]3C(=O)N(C)[C@H]3CC(C)=C(C)CN(C3=O)[C@@H](Cc3ccc(C(F)(F)F)cc3)C(=O)N(C)CC(=O)N[C@@H](CCc3cc(F)c(C(F)(F)F)c(F)c3)C(=O)N2C1 [PP1049] | 6.45 |  |  | NRAS /KRAS [2, 5]: C (A compound having a KD ratio of 0.1 or more and less than 3 is denoted as C); HRAS /KRAS (HRAS wild-type protein; [6]): C (A compound having a KD ratio of 0.1 or more and less than 3 is denoted as C) |
| CCC[C@H]1C(=O)N[C@@H]([C@@H](C)CC)C(=O)N(C)CC(=O)N(C)[C@H]2C/C=C\CCN(C2=O)[C@@H](Cc2ccc(C(F)(F)F)cc2)C(=O)N(C)CC(=O)N[C@@H](CCc2cc(F)c(C(F)(F)F)c(F)c2)C(=O)N2C[C@H](OCC)C[C@H]2C(=O)NC2(CCC2)C(=O)N(C)[C@@H](C2CCCC2)C(=O)N(C)[C@H](C(=O)N(CC)CC)CC(=O)N1C [PP1310] | 8.35 |  |  | NRAS /KRAS [2, 7]: AA (a compound having 20 or more is denoted as AA); HRAS /KRAS (HRAS wild-type protein; [8]): A (a compound having 10 or more and less than 20 is denoted as A) |
| CCO[C@@H]1C[C@H]2C(=O)NC3(CCC3)C(=O)N(C)[C@@H](C3CCCC3)C(=O)N(C)[C@H](C(=O)N(C)CCOC)CC(=O)N(C)[C@@H](CC3CC3)C(=O)N[C@@H]([C@@H](C)CC)C(=O)N(C)CC(=O)N(C)[C@H]3C/C=C\CCN(C3=O)[C@@H](Cc3ccc(C(F)(F)F)cc3)C(=O)N(C)CC(=O)N[C@@H](CCc3cc(F)c(C(F)(F)F)c(F)c3)C(=O)N2C1 [PP1318] | 7.94 |  |  | NRAS /KRAS [2, 7]: A (a compound having 10 or more and less than 20 is denoted as A); HRAS /KRAS (HRAS wild-type protein; [8]): A (a compound having 10 or more and less than 20 is denoted as A) |
| CC[C@H](C)[C@@H]1NC(=O)[C@H](CC(C)C)N(C)C(=O)C[C@@H](C(=O)N2CCOCC2)N(C)C(=O)[C@H](C2CCCC2)N(C)C(=O)C2(CCCC2)NC(=O)[C@@H]2CCCN2C(=O)[C@H](CCc2ccc(C(F)(F)F)c(Cl)c2)NC(=O)CN(C)C(=O)[C@H](Cc2ccc(OC)cc2)N2CC=CC[C@@H](C2=O)N(C)C(=O)CN(C)C1=O [PP0535] | 7.26 | C (A compound having a KD ratio of 0.1 or more and less than 3 is denoted as C) | B (a compound having 3 or more and less than 10 is denoted as B) |  |
| CCCN1C(=O)CN(C)C(=O)[C@@H]2CCN2C(=O)[C@H]([C@@H](C)CC)NC(=O)[C@H](CC(C)C)N(C)C(=O)C[C@@H](C(=O)N2CCOCC2)N(C)C(=O)[C@H](C2CCCC2)N(C)C(=O)C2(CCC2)NC(=O)[C@@H]2C[C@@H](OCC)CN2C(=O)[C@H](CCc2ccc(C(F)(F)F)c(Cl)c2)NC(=O)CN(C)C(=O)[C@@H]1Cc1ccc(C(F)(F)F)cc1 [PP0405] ([NMeL]I[Aze][Sar][NPrPhe(4-CF3)][Sar][hPhe(3-Cl-4-CF3)][Hyp](Et)[Ac4c][NMeGly(cPent)][NMeD]-Morpholide; lactam N-11) | 7.84 | B (a compound having 3 or more and less than 10 is denoted as B) | C (A compound having a KD ratio of 0.1 or more and less than 3 is denoted as C) |  |
| CC[C@H](C)[C@@H]1NC(=O)[C@H](CC(C)C)N(C)C(=O)C[C@@H](C(=O)N2CCOCC2)N(C)C(=O)[C@H](C2CCCC2)N(C)C(=O)C2(CCCC2)NC(=O)[C@@H]2CCCN2C(=O)[C@H](CCc2ccc(C(F)(F)F)c(Cl)c2)NC(=O)CN(C)C(=O)[C@H](Cc2ccc(C(F)(F)F)cc2)N(CCCF)C(=O)[C@@H]2CCN2C(=O)[C@H](C)N(C)C1=O [PP0525] ([NMeL]I[NMeA][Aze][X19][Sar][hPhe(3-Cl-4-CF3)]P[Ac5c][NMeGly(cPent)][NMeD]-Morpholide; lactam N-11) | 8.68 | C (A compound having a KD ratio of 0.1 or more and less than 3 is denoted as C) | B (a compound having 3 or more and less than 10 is denoted as B) |  |
| CCO[C@@H]1C[C@H]2C(=O)NC3(CC(C)(C)C3)C(=O)N(C)[C@@H](C3CCCC3)C(=O)N3CCC[C@@H]3CC(=O)N(C)[C@@H](CC)C(=O)N[C@@H]([C@@H](C)CC)C(=O)N(C)CC(=O)N(C)[C@H]3C/C=C\CCN(C3=O)[C@@H](CC3CCCCC3)C(=O)N(C)CC(=O)N[C@@H](CCc3cc(F)c(C(F)(F)F)c(F)c3)C(=O)N2C1 [PP1620] | 6.77 |  |  | NRAS /KRAS [2, 9]: B (a compound having 3 or more and less than 10 is denoted as B); HRAS /KRAS (HRAS wild-type protein; [10]): B (a compound having 3 or more and less than 10 is denoted as B) |

Second part, led by results:

| pIC50 [1] | Structure (SMILES) | NRAS /KRAS [2, 3] | HRAS /KRAS (HRAS wild-type protein; [4]) | further results |
| --- | --- | --- | --- | --- |
| 8.28 | CCCN(C)C(=O)[C@@H]1CC(=O)N(C)[C@@H](CCOC)C(=O)N[C@@H]([C@@H](C)CC)C(=O)N(C)CC(=O)N(C)[C@H]2C/C=C\CCN(C2=O)[C@@H](Cc2ccc(C(F)(F)F)cc2)C(=O)N(C)CC(=O)N[C@@H](CCc2ccc(C(F)(F)F)c(OC)c2)C(=O)N2C[C@H](OCC)C[C@H]2C(=O)NC2(CCC2)C(=O)N(C)[C@@H](C2CCCC2)C(=O)N1C [PP2018] | A (a compound having 10 or more and less than 20 is denoted as A) | B (a compound having 3 or more and less than 10 is denoted as B) |  |
| 8.25 | CCCN(C)C(=O)[C@@H]1CC(=O)N(C)[C@@H](COCC)C(=O)N[C@@H]([C@@H](C)CC)C(=O)N(C)CC(=O)N(C)[C@H]2C/C=C\CCN(C2=O)[C@@H](Cc2ccc(C(F)(F)F)cc2)C(=O)N(C)CC(=O)N[C@@H](CCc2ccc(C(F)(F)F)c(OC)c2)C(=O)N2C[C@H](OCC)C[C@H]2C(=O)NC2(CCC2)C(=O)N(C)[C@@H](C2CCCC2)C(=O)N1C [PP2015] | A (a compound having 10 or more and less than 20 is denoted as A) | B (a compound having 3 or more and less than 10 is denoted as B) |  |
| 8.44 | CCCN(C)C(=O)[C@@H]1CC(=O)N(C)[C@@H](C)C(=O)N[C@@H]([C@@H](C)CC)C(=O)N(C)CC(=O)N(C)[C@H]2C/C=C\CCN(C2=O)[C@@H](Cc2ccc(C(F)(F)F)cc2)C(=O)N(C)CC(=O)N[C@@H](CCc2cc(F)c(C(F)(F)F)c(F)c2)C(=O)N2C[C@H](F)C[C@H]2C(=O)NC2(CC(C)(C)C2)C(=O)N(C)[C@@H](C2CCCC2)C(=O)N1C [PP1663] |  |  | NRAS /KRAS [2, 9]: AA (a compound having 20 or more is denoted as AA); HRAS /KRAS (HRAS wild-type protein; [10]): A (a compound having 10 or more and less than 20 is denoted as A) |
| 7.99 | CC[C@H](C)[C@@H]1NC(=O)[C@H](C2CCC2)N(C)C(=O)C[C@@H](C(=O)N(C)C)N(C)C(=O)[C@H](C2CCCC2)N(C)C(=O)C2(CC(C)(C)C2)NC(=O)[C@@H]2C[C@H](C)CN2C(=O)[C@H](CCc2ccc(C(F)(F)F)c(OC)c2)NC(=O)CN(C)C(=O)[C@H](Cc2ccc(C(F)(F)F)cc2)N2CC/C=C\C[C@@H](C2=O)N(C)C(=O)CN(C)C1=O [PP2011] | A (a compound having 10 or more and less than 20 is denoted as A) | A (a compound having 10 or more and less than 20 is denoted as A) |  |
